{
  "source": "patent US6740636B2",
  "about": "(priority 2000, dated 2004)",
  "key": {"[1]": {"system": "recipient Lewis rats given donor ACI rat grafts", "experiment": "Heterotopic heart transplant rejection model (ACI donor, Lewis recipient)", "format": "in vivo", "conditions": "cyclosporin A only", "description": "In this assay an increase in allograft survival time corresponds to a decrease in heart transplant rejection in the recipient Lewis rats given donor ACI rat grafts.\nAdult male, specific pathogen-free ACI (RT1a) and Lewis (RT1l) rats (Charles River, Boston, Mass.) weighing 200 to 250 g were used as donors and recipients, respectively, in these studies. Vascularized cardiac allografts were heterotopically transplanted into the abdomen of recipient rats using a modification (Nisco, S. et al., (1994), supra) of the technique of Ono and Lindsay (Ono, K. et al., (1969), supra). […] Abdominal allografts were palpated on a daily basis to assess graft function, and rejection was deemed complete when palpable ventricular contractions ceased.\nThe transplanted hearts were evaluated daily for signs of rejection over the course of the study."}, "[2]": {"system": "allogeneic heart transplants", "experiment": "Histology, immunohistochemistry (ED1) and rejection score of allogeneic heart transplants 3 days after transplantation", "format": "in vivo, rat", "procedure": "Transplanted hearts were removed under deep anesthesia, quickly blotted free of blood, weighed, and then processed as needed for histology and immunohistochemistry. The organs were cut into 1-mm slices and either immersion-fixed in 4% formaldehyde in phosphate buffered saline (PBS) pH 7.35, (PBS: 99 mM NaH2PO4, 108 mM NaH2PO4 and 248 mM NaCl) for 24 h or fixed in methacarn for 8 h and embedded in paraffin. Light microscopy was performed on 3 μm sections stained by periodic acid-Schiff or Goldner-Elastica. Light microscopy was performed on allogeneic heart transplants 3 days after transplantation.\nThe ED1 monoclonal antibody (Serotec/Camon) was used on methacarn fixed paraffin embedded tissue (3 μm) to stain for rat monocytes/macrophage cells. An alkaline phosphatase anti-alkaline phosphatase detection system was used for visualization (Dako). Controls that omit the first or second antibody for each section were performed for negative staining. […]\nMild acute rejection (score: 1) was characterized by a sparse interstitial mononuclear infiltrate often accentuated in perivascular spaces. […] The rejection score was calculated for every tissue block and an average score was calculated from the different blocks for every transplanted heart as rejection processes tended to be focal."}},
  "data": [
    {"substance": "cyclosporin A", "values": [
      {"measurement": "mean allograft survival time", "setting": "[1]; 2.5 mg/kg by gavage once per day for duration of study", "value": "7.3±0.5", "unit": "days"},
      {"measurement": "mean allograft survival time", "setting": "[1]; 10 mg/kg by gavage once per day for four days", "value": "12.9±0.7", "unit": "days"},
      {"measurement": "immunohistology for ED1-positive monocytes/macrophages in allogeneic heart transplants", "setting": "[2]", "value": "inflammatory cell infiltrate was focal and was composed primarily of ED-1 positive cells"}
    ]}
  ]
}
